{
  "source": "patent US5750522A",
  "about": "“Pyrrolo[1,2-d] [1,2,4]triazine derivatives” (American Home Products Corporation, priority 1996, dated 1998)",
  "key": {"ml muscarinic receptor": {"target": "ml muscarinic receptor (Homo sapiens, UniProt P11229)", "test": "biochemical", "type": "binding"}, "[1]": {"target": "T1, M1 acetylcholine receptors (ml receptors in CHO cells) (Homo sapiens, UniProt P11229)", "T1 sequence (P11229 1-460)": "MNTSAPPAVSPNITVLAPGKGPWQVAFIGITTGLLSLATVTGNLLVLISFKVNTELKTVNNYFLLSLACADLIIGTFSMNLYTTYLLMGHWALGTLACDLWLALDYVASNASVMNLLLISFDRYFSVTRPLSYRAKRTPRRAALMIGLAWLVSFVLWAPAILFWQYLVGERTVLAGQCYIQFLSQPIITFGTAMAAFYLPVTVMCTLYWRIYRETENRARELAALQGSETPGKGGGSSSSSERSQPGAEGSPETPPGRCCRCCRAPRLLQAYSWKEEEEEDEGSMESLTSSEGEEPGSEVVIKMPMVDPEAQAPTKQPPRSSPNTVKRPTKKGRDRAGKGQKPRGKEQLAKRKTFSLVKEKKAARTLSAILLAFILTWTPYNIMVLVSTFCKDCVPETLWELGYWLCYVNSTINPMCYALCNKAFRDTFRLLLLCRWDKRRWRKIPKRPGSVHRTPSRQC", "test": "cell-based", "conditions": "at 30x Ki (μM), carb = 100%, 1 h, 37° C., read-out: % PI Hydrolysis ml receptors in CHO cells"}, "[2]": {"system": "patients with mild to moderate Alzheimer's disease", "conditions": "cited from earlier work"}, "[3]": {"conditions": "continuous infusion over 2 weeks used because of it; cited from earlier work"}, "ml receptors": {"system": "ml receptors", "conditions": "background statement; cited from earlier work"}, "[4]": {"conditions": "quaternary ammonium group; background statement; cited from earlier work"}, "[5]": {"system": "patients with mild to moderate Alzheimer's disease", "conditions": "especially at the higher doses where it is most effective; cited from earlier work"}},
  "note": "Structures can show the parent of a compound that is named as a salt.",
  "data": [
    {"smiles": "Cc1nnc(NCCCCN2CC3CCC(CC3)C2)n2cccc12", "note": "[Example 1, [4-(3-Azabicyclo[3.2.2]-3-yl)-butyl]-(1-methylpyrrolo[1,2-d][1,2,4]triazin-4-yl)amine dihydrochloride]", "values": [
      {"measurement": "Ki", "setting": "ml muscarinic receptor", "value": 310, "unit": "nM"}
    ]},
    {"smiles": "Cc1nnc(NCCCN2CC3CCC(CC3)C2)n2cccc12", "note": "[Example 2, [4-(3-Azabicyclo[3.2.2.]-3-propyl]-(1-methylpyrrolo[1,2-d][1,2,4]triazin-4-yl)aminedihydrochloride]", "values": [
      {"measurement": "Ki", "setting": "ml muscarinic receptor", "value": 1390, "unit": "nM"}
    ]},
    {"smiles": "Cc1nnc(NCCN2CC3CCC(CC3)C2)n2cccc12", "note": "[Example 3, [4-(3-Azabicyclo[3.2.2]non-3-yl)ethyl]-(1-methylpyrrolo[1,2-d][1,2,4]triazin-4-yl)amine dihydrochloride]", "values": [
      {"measurement": "Emax", "setting": "[1]", "value": 24, "unit": "%"},
      {"measurement": "Ki", "setting": "ml muscarinic receptor", "value": 4450, "unit": "nM"}
    ]},
    {"smiles": "Cc1nnc(NC2CN3CCC2CC3)n2cccc12", "note": "(stereo not shown) [Example 4, (1-Azabicyclo[2.2.2]oct-3-yl)-1-methylpyrrolo[1,2-d][1,2,4]triazin-4-ylamine dihydrochloride]", "values": [
      {"measurement": "IC50", "setting": "ml muscarinic receptor", "value": 20200, "unit": "nM"}
    ]},
    {"smiles": "COC(=O)C1=CCCN(C)C1", "note": "[arecoline]", "values": [
      {"measurement": "improvement in memory", "setting": "[2]", "value": "memory improvement in patients with mild to moderate Alzheimer's disease"},
      {"measurement": "half-life", "setting": "[3]", "value": "short half-life"}
    ]},
    {"smiles": "C[N+](C)(C)CCOC(N)=O", "note": "[carbachol]", "values": [
      {"measurement": "activation of ml receptors", "setting": "ml receptors", "value": "able to fully activate ml receptors"},
      {"measurement": "ability to enter the CNS", "setting": "[4]", "value": "not able to enter the CNS"}
    ]},
    {"smiles": "C[C@@H]1O[C@H](C[N+](C)(C)C)C[C@H]1O", "note": "[muscarine]", "values": [
      {"measurement": "activation of ml receptors", "setting": "ml receptors", "value": "able to fully activate ml receptors"},
      {"measurement": "ability to enter the CNS", "setting": "[4]", "value": "not able to enter the CNS"}
    ]},
    {"smiles": "Nc1c2c(nc3ccccc13)CCCC2", "note": "[tacrine]", "values": [
      {"measurement": "improvement in memory", "setting": "[2]", "value": "improvement in memory can be shown in patients with mild to moderate Alzheimer's disease"},
      {"measurement": "adverse side effects", "setting": "[5]", "value": "adverse side effects especially at the higher doses where it is most effective"}
    ]}
  ]
}
